row,SMILES,melting point [°C]
1,"Cn1ncc(/C=C/C(=O)Nc2ccc(Cc3nc(C(N)=O)cs3)cc2)c1-c1ccc(F)cc1 [Example 132, 2-[4-({(2E)-3-[5-(4-fluorophenyl)-1-methyl-1H-pyrazol-4-yl]prop-2-enoyl}amino)benzyl]-1,3-thiazole-4-carboxamide]",159 to 160
2,COP(=O)(Cc1ccc(NC(=O)/C=C/c2snnc2-c2ccc(F)cc2)cc1)OC,196 to 197
3,"CSCc1ccc(NC(=O)/C=C/c2cnn(C)c2-c2ccc(F)cc2)cc1 [Example 208, (2E)-3-[5-(4-fluorophenyl)-1-methyl-1H-pyrazol-4-yl]-N-{4-[(methylthio)methyl]phenyl}acrylamide]",165 to 168
4,COc1ccc(-c2c(/C=C/C(=O)Nc3ccc(CP(=O)(OC)OC)cc3)cnn2C)cc1,199 to 200
5,CCOP(=O)(Cc1ccc(NC(=O)/C=C/c2cnn(C)c2C)cc1)OCC,228 to 230
6,"Cn1ncc(/C=C/C(=O)Nc2ccc(Cc3ccccn3)cc2)c1-c1ccc(F)cc1 [Example 96, (2E)-3-[5-(4-Fluorophenyl)-1-methyl-1H-pyrazol-4-yl]-N-[4-(pyridin-2-ylmethyl)phenyl]acrylamide]",215 to 216
7,"Cn1nnnc1Cc1ccc(NC(=O)/C=C/c2cnn(C)c2-c2ccc(F)cc2)cc1 [Example 101, (2E)-3-[5-(4-Fluorophenyl)-1-methyl-1H-pyrazol-4-yl]-N-{4-[(1-methyl-1H-tetrazol-5-yl)methyl]phenyl}acrylamide]",243 to 244
8,COP(=O)(Cc1ccc(NC(=O)/C=C/c2cnn(C)c2-c2ccoc2)cc1)OC,176 to 177
9,"CSc1ccc(NC(=O)/C=C/c2cnn(C)c2-c2ccc(F)cc2)cc1 [Example 204, (2E)-3-[5-(4-Fluorophenyl)-1-methyl-1H-pyrazol-4-yl]-N-[4-(methylthio)phenyl]acrylamide]",164 to 165
10,"COC(=O)c1ccc(NC(=O)CCc2cnn(-c3ccccc3)c2-c2ccccc2)cc1 [Example 82, N-[4-(Methoxycarbonyl)phenyl]-3-(1,5-diphenyl-1H-pyrazol-4-yl)propionamide]",196 to 197
11,"Cn1ncc(/C=C/C(=O)Nc2ccc(C[S+]([O-])c3ccccc3)cc2)c1-c1ccc(F)cc1 (stereo not drawn) [Example 219, (2E)-3-[5-(4-Fluorophenyl)-1-methyl-1H-pyrazol-4-yl]-N-{4-[(phenylsulfinyl)methyl]phenyl}acrylamide]",236 to 237
12,CCOP(=O)(Cc1ccc(NC(=O)/C=C/c2cnn(C)c2-c2cccc(F)c2)cc1)OCC,205 to 206
13,CCOP(=O)(Cc1ccc(NC(=O)/C=C/c2cnn(C)c2-c2cccc3ccccc23)cc1)OCC,229 to 231

# Now from value to molecule:
row,melting point [°C],SMILES
1,276 to 278,"Cn1ncc(/C=C/C(=O)Nc2ccc(C(N)=O)cc2)c1-c1ccc(F)cc1 [Example 183, 4-({(2E)-3-[5-(4-Fluorophenyl)-1-methyl-1H-pyrazol-4-yl]prop-2-enoyl}amino)benzamide]"
2,224 to 225,"Cn1nnnc1S(=O)(=O)Cc1ccc(NC(=O)/C=C/c2cnn(C)c2-c2ccc(F)cc2)cc1 [Example 226, (2E)-3-(5-(4-Fluorophenyl)-1-methyl-1H-pyrazol-4-yl]-N-(4-{[(1-methyl-1H-tetrazol-5-yl)sulfonyl]methyl}phenyl)acrylamide]"
3,242 to 243,"Cn1ncc(/C=C/C(=O)Nc2ccc(C[S+]([O-])C(C)(C)C)cc2)c1-c1ccc(F)cc1 (stereo not drawn) [Example 218, (2E)-N-{4-[(tert-Butylsulfinyl)methyl]phenyl}-3-[5-(4-fluorophenyl)-1-methyl-1H-pyrazol-4-yl]acrylamide]"
4,201 to 202,CCOP(=O)(Cc1ccc(NC(=O)/C=C/c2cnn(C)c2)cc1)OCC
5,218 to 220,"Cn1ncc(/C=C/C(=O)Nc2ccc(CN3C(=O)CCCC3=O)cc2)c1-c1ccc(F)cc1 [Example 158, (2E)-N-{4-[(2,6-Dioxo-1-piperidinyl)methyl]phenyl}-3-[5-(4-fluorophenyl)-1-methyl-1H-pyrazol-4-yl]acrylamide]"

# — patent US7423159B2, “Agent for preventing or treating neuropathy” (Takeda Pharmaceutical Company Limited, priority 2002, dated 2008)
